# Tests used:
# [1] = test system: Bacillus cereus NBRC15305; experiment: Sterilizing effect on floor surface after wiping off imitation vomit, tatami mattress; assay type: cell-based; settings: 1000 ppm available chlorine
# Source text: (§1) 1) Chlorous acid aqueous solution formulation (see Example 1: Table 11) Treatment sheet (material: 100% cotton): (about 27×40 cm) *Impregnated at a ratio of weight of treatment sheet (g): amount of liquid (ml)=1:3 2) Imitation vomit Miso solution: adjusted to pH of 2 with hydrochloric acid 3) Test Microbes that were Used E. coli: Escherichia coli IF03927 Staphylococcus aureus: Staphylococcus aureus IF0 12732 Thermoduric Microbes (Bacillus cereus): Bacillus cereus NBRC15305 Microbes of the genus Salmonella: Salmonella Enteritidis IF03313 Enterohemorrhagic Escherichia coli O157: Escherichia coli O157 Enterohemorrhagic Escherichia coli O111: Escherichia coli O111 Enterohemorrhagic Escherichia coli O26: Escherichia coli O26
# (§2) (1) Imitation vomit was spread in an area about the size of an A4 sheet. (2) 5 dry sheets were laid thereon. (3) An agent solution was poured on the dry sheets to wipe off the imitation vomit. (4) A cotton swab was soaked with sterile saline. A portion where imitation vomit was spread was scrubbed with the cotton swab to collect microbes remaining on the floor. After suspending in saline, the solution was spread on a petri dish and cultured. The number of each of the microbes was measured. (5) Test operations 3 and 4 were repeated a total of 7 times (repeated until the imitation vomit could be removed completely).
# [2] = test system: E. coli: Escherichia coli IF03927; experiment: as above; assay type: cell-based; settings: 1000 ppm available chlorine
# Source text: as §1, §2
# [3] = test system: Enterohemorrhagic Escherichia coli O111; experiment: as above; assay type: cell-based; settings: 1000 ppm
# Source text: as §1, §2
# [4] = test system: Enterohemorrhagic Escherichia coli O157; experiment: as above; assay type: cell-based; settings: 1000 ppm available chlorine
# Source text: as §1, §2
# [5] = test system: Enterohemorrhagic Escherichia coli O26; experiment: as above; assay type: cell-based; settings: 1000 ppm available chlorine
# Source text: as §1, §2
# [6] = test system: Microbes of the genus Salmonella: Salmonella Enteritidis IF03313; experiment: as above; assay type: cell-based; settings: 1000 ppm available chlorine
# Source text: as §1, §2
# [7] = test system: Staphylococcus aureus IF0 12732; experiment: as above; assay type: cell-based; settings: 1000 ppm available chlorine
# Source text: as §1, §2
# [8] = test system: E. coli: Escherichia coli IF03927; experiment: Sterilizing effect on floor surface after wiping off imitation vomit, carpet; assay type: cell-based; settings: 1000 ppm available chlorine
# Source text: as §1, §2
# [9] = Deodorizing effect (chemical deodorization, gas detector tube); settings: 400 ppm, spray 20 cc
# Source text: In order to evaluate tests on deodorizing effects, the present Example examined deodorizing effects by using standards regarding air freshening and deodorization ([II]-2 Method of Testing Deodorizing Efficacy (Chemical Deodorization)) set forth by the Air Fresheners and Deodorizers Conference (http://www.houkou.gr.jp/) as the efficacy testing method, which is adopted by Japan Food Research Laboratories.
# Ammonium odor: Ammonium Standard Solution II (Wako Pure Chemical Industries, for testing malodorous substances) Amine odor: methyl mercaptan standard solution (Wako Pure Chemical Industries, for testing malodorous substances) Sulfur odor: hydrogen sulfide (self-made, used hydrogen sulfide that was generated by adding sulfuric acid to zinc sulfide)
# Gas detector tube made by GASTEC Corporation Ammonium odor: Detector tube ammonium 3 L made by GASTEC Corporation Amino odor: Detector tube methyl mercaptan 71 made by GASTEC Corporation Sulfur odor: Detector tube hydrogen sulfide 4 LL made by GASTEC Corporation
# Tests were conducted in compliance with ([II]-2 Method of Testing Deodorizing Efficacy (Chemical Deodorization)) set forth by the Air Fresheners and Deodorizers Conference.
# The tests were carried out by static culture method, using a commercially-available airbag with a spigot having a volume of about 10 L as test containers. The volume of airbags was appropriately changed in accordance with the size of the product.
# The bags were filled with odorless air. Malodor concentrations were measured over time at room temperature (about 20° C.). (3 points or higher, detection tube method (FIG. 16), measured by an instrument analysis method or olfactory measurement method. When decrease in the blank was observed, the decrease was suitably corrected. When measuring by olfactory measuring method, the airbag spigot was opened for direct sniffing, or gas was transferred to an odor bag while wearing a mask to perform olfactory measurement in an autonomic respiration form. Measured air was not returned to the source).
# Next, for amine odor (methyl mercaptan), the residual concentrations were detected and recorded for control (no specimen), 20 ml (cc) of distilled water, sodium hypochlorite (expressed as Na hypochlorite, 400 ppm), and chlorous acid aqueous solution (expressed as CAAS, 400 ppm) prior to spraying and 0 hour, 3 hours, 6 hours, 9 hours, and 24 hours after spraying. The experiment was conducted twice.
# [10] = first experiment (Table 55), 0 h after spraying
# [11] = first experiment (Table 55), 3 h after spraying
# [12] = first experiment (Table 55), 6 h after spraying
# [13] = first experiment (Table 55), 9 h after spraying
# [14] = first experiment (Table 55), 24 h after spraying
# [15] = first experiment (Table 55), before spraying
# [16] = second experiment (Table 56), 0 h after spraying
# [17] = second experiment (Table 56), 3 h after spraying
# [18] = second experiment (Table 56), 6 h after spraying
# [19] = second experiment (Table 56), 9 h after spraying
# [20] = second experiment (Table 56), 24 h after spraying
# [21] = second experiment (Table 56), before spraying
smiles,measurement,setting,value
"OCl [Sodium Hypochlorite, sodium hypochlorite]","microbes remaining, wiped 1 Time",[1]; stored at 25° C. Day 0,<10
same,"microbes remaining, wiped 2 Times",[1]; stored at 25° C. Day 0,<10
same,"microbes remaining, wiped 3 Times",[1]; stored at 25° C. Day 0,<10
same,"microbes remaining, wiped 1 Time",[1]; stored at 25° C. Day 7,<10
same,"microbes remaining, wiped 2 Times",[1]; stored at 25° C. Day 7,<10
same,"microbes remaining, wiped 3 Times",[1]; stored at 25° C. Day 7,<10
same,"microbes remaining, wiped 1 Time",[2]; stored at 25° C. Day 0,<10
same,"microbes remaining, wiped 2 Times",[2]; stored at 25° C. Day 0,<10
same,"microbes remaining, wiped 3 Times",[2]; stored at 25° C. Day 0,<10
same,"microbes remaining, wiped 1 Time",[2]; stored at 25° C. Day 7,<10
same,"microbes remaining, wiped 2 Times",[2]; stored at 25° C. Day 7,<10
same,"microbes remaining, wiped 3 Times",[2]; stored at 25° C. Day 7,<10
same,Number of Times Wiped 1 Time (remaining microbes),[3]; stored at 25° C. Day 0,<10
same,Number of Times Wiped 2 Times (remaining microbes),[3]; stored at 25° C. Day 0,<10
same,Number of Times Wiped 3 Times (remaining microbes),[3]; stored at 25° C. Day 0,<10
same,Number of Times Wiped 1 Time (remaining microbes),[3]; stored at 25° C. Day 7,<10
same,Number of Times Wiped 2 Times (remaining microbes),[3]; stored at 25° C. Day 7,<10
same,Number of Times Wiped 3 Times (remaining microbes),[3]; stored at 25° C. Day 7,<10
same,Number of Times Wiped 1 Time (remaining microbes),[4]; stored at 25° C. Day 0,<10
same,Number of Times Wiped 2 Times (remaining microbes),[4]; stored at 25° C. Day 0,<10
same,Number of Times Wiped 3 Times (remaining microbes),[4]; stored at 25° C. Day 0,<10
same,Number of Times Wiped 1 Time (remaining microbes),[4]; stored at 25° C. Day 7,<10
same,Number of Times Wiped 2 Times (remaining microbes),[4]; stored at 25° C. Day 7,<10
same,Number of Times Wiped 3 Times (remaining microbes),[4]; stored at 25° C. Day 7,<10
same,Number of Times Wiped 1 Time (remaining microbes),[5]; stored at 25° C. Day 0,<10
same,Number of Times Wiped 2 Times (remaining microbes),[5]; stored at 25° C. Day 0,<10
same,Number of Times Wiped 3 Times (remaining microbes),[5]; stored at 25° C. Day 0,<10
same,Number of Times Wiped 1 Time (remaining microbes),[5]; stored at 25° C. Day 7,8.8 × 10^3
same,Number of Times Wiped 2 Times (remaining microbes),[5]; stored at 25° C. Day 7,4.9 × 10^3
same,Number of Times Wiped 3 Times (remaining microbes),[5]; stored at 25° C. Day 7,3.0 × 10^3
same,"microbes remaining, wiped 1 Time",[6]; stored at 25° C. Day 0,<10
same,"microbes remaining, wiped 2 Times",[6]; stored at 25° C. Day 0,<10
same,"microbes remaining, wiped 3 Times",[6]; stored at 25° C. Day 0,<10
same,"microbes remaining, wiped 1 Time",[6]; stored at 25° C. Day 7,1.5 × 10^3
same,"microbes remaining, wiped 2 Times",[6]; stored at 25° C. Day 7,7.7 × 10^2
same,"microbes remaining, wiped 3 Times",[6]; stored at 25° C. Day 7,1.8 × 10^2
same,"microbes remaining, wiped 1 Time",[7]; stored at 25° C. Day 0,<10
same,"microbes remaining, wiped 2 Times",[7]; stored at 25° C. Day 0,<10
same,"microbes remaining, wiped 3 Times",[7]; stored at 25° C. Day 0,<10
same,"microbes remaining, wiped 1 Time",[7]; stored at 25° C. Day 7,<10
same,"microbes remaining, wiped 2 Times",[7]; stored at 25° C. Day 7,<10
same,"microbes remaining, wiped 3 Times",[7]; stored at 25° C. Day 7,<10
same,Number of Times Wiped 1 Time (remaining microbes),[8]; stored at 25° C. Day 0,<10
same,Number of Times Wiped 2 Times (remaining microbes),[8]; stored at 25° C. Day 0,<10
same,Number of Times Wiped 3 Times (remaining microbes),[8]; stored at 25° C. Day 0,<10
same,Number of Times Wiped 1 Time (remaining microbes),[8]; stored at 25° C. Day 7,<10
same,Number of Times Wiped 2 Times (remaining microbes),[8]; stored at 25° C. Day 7,<10
same,Number of Times Wiped 3 Times (remaining microbes),[8]; stored at 25° C. Day 7,<10
same,"residual concentration of methyl mercaptan, after correction (Control = 100)",[9]; [10],22
same,"residual concentration of methyl mercaptan, before correction",[9]; [10],20 ppm
same,"residual concentration of methyl mercaptan, after correction (Control = 100)",[9]; [11],0
same,"residual concentration of methyl mercaptan, before correction",[9]; [11],0 ppm
same,"residual concentration of methyl mercaptan, after correction (Control = 100)",[9]; [12],0
same,"residual concentration of methyl mercaptan, before correction",[9]; [12],0 ppm
same,"residual concentration of methyl mercaptan, after correction (Control = 100)",[9]; [13],14
same,"residual concentration of methyl mercaptan, before correction",[9]; [13],5 ppm
same,"residual concentration of methyl mercaptan, after correction (Control = 100)",[9]; [14],25
same,"residual concentration of methyl mercaptan, before correction",[9]; [14],6 ppm
same,"residual concentration of methyl mercaptan, after correction (Control = 100)",[9]; [15],100
same,"residual concentration of methyl mercaptan, before correction",[9]; [15],90 ppm
same,"residual concentration of methyl mercaptan, after correction (Control = 100)",[9]; [16],11
same,"residual concentration of methyl mercaptan, before correction",[9]; [16],8 ppm
same,"residual concentration of methyl mercaptan, after correction (Control = 100)",[9]; [17],11
same,"residual concentration of methyl mercaptan, before correction",[9]; [17],5 ppm
same,"residual concentration of methyl mercaptan, after correction (Control = 100)",[9]; [18],12
same,"residual concentration of methyl mercaptan, before correction",[9]; [18],5 ppm
same,"residual concentration of methyl mercaptan, after correction (Control = 100)",[9]; [19],24
same,"residual concentration of methyl mercaptan, before correction",[9]; [19],7 ppm
same,"residual concentration of methyl mercaptan, after correction (Control = 100)",[9]; [20],35
same,"residual concentration of methyl mercaptan, before correction",[9]; [20],5 ppm
same,"residual concentration of methyl mercaptan, after correction (Control = 100)",[9]; [21],100
same,"residual concentration of methyl mercaptan, before correction",[9]; [21],70 ppm
